This is an account of results in patent publication US8987195B2 (priority 2012, dated 2015).

pEC50: −log10 of the molar value. Read-outs that look alike come from different tables or passages of the source.

The subject of one assay is HCV genotype 1b replicon. The assay is described as follows: HCV replicon assay, genotype 1b replicon EC50. The following applies: Hepatitis C virus, genotype 1b replicon, read-out: EC50 [gt-1b]. It counts as cell-based, Hepatitis C virus. In short, it runs like this: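 Assay format: compound titration on stable replicon cells, no G418 during treatment, 24 to 48 hours. Lysates were assayed for replicon RNA (hybridization/protection or TaqMan) or luciferase; EC50 fitted to four parameters against DMSO.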

The target in assay [1] is HCV NS3/4A protease genotype 1b (Hepatitis C virus genotype 1b, UniProt P26663). The assay can be described thus: HCV NS3/4A protease time-resolved fluorescence (TRF) assay, Ki against genotype 1b. In kind it is biochemical. The following applies: IC50 [gt-1b] (nM), NS3/4A genotype 1b, enzyme 0.2 nM. In short, it runs like this:
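Enzyme 0.2 nM 1b / 0.4 nM A156T / 0.025 nM 3a; 30 min preinc. w/ cpd; 25 nM TRF peptide; 2.5 h RT; ex 340/em 615 time-delayed; 4-param IC50 → Ki = IC50/(1+[S]/KM).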

For `COc1ccc2nc(C)c3c(c2c1)CC[C@]1(C[C@H]2C(=O)N[C@]4(C(=O)NS(=O)(=O)C5(C)CC5)C[C@H]4/C=C\CCCCC[C@H](NC(=O)OC4CC5CC(=O)OC5C4)C(=O)N2C1)O3` (stereo partly drawn) [Example 261, 2-oxohexahydro-2H-cyclopenta[b]furan-5-yl [(2R,6S,12Z,13aS,14aR,16aS)-9′-methoxy-5′-methyl-14a-{[(1-methylcyclopropyl)sulfonyl]carbamoyl}-5,16-dioxo-1,1′,2′,5,6,7,8,9,10,11,13a,14,14a,15,16,16a-hexadecahydrospiro[cyclopropa[e]pyrrolo[1,2-a][1,4]diazacyclopentadecine-2,3′-pyrano[2,3-c]quinolin]-6-yl]carbamate], in the assay with HCV genotype 1b replicon, the negative logarithm of the EC50 (pEC50) is 6.72. In assay [1], this molecule returned an IC50 of 0.008 nM.

For the molecule `COc1ccc2nc(C)c3c(c2c1)C(F)(F)C[C@]1(C[C@H]2C(=O)N[C@]4(C(=O)NS(=O)(=O)C5(C)CC5)C[C@H]4/C=C\CCCCC[C@H](NC(=O)O[C@H](C)C(C)C)C(=O)N2C1)O3` [Example 263, (2R)-3-methylbutan-2-yl [(2S,6S,12Z,13aS,14aR,16aS)-1′,1′-difluoro-9′-methoxy-5′-methyl-14a-{[(1-methylcyclopropyl)sulfonyl]carbamoyl}-5,16-dioxo-1,1′,2′,5,6,7,8,9,10,11,13a,14,14a,15,16,16a-hexadecahydrospiro[cyclopropa[e]pyrrolo[1,2-a][1,4]diazacyclopentadecine-2,3′-pyrano[2,3-c]quinolin]-6-yl]carbamate], the pEC50 in the assay on HCV genotype 1b replicon (K+ salt) is 8.28. Also, in assay [1] (K+ salt), the half-maximal inhibitory concentration (IC50) stood at 0.007 nM.

Regarding `COc1ccc2nc(C)c3c(c2c1)C(F)(F)C[C@]1(C[C@H]2C(=O)N[C@]4(C(=O)NS(=O)(=O)C5(C)CC5)C[C@H]4/C=C\CCCCC[C@H](NC(=O)O[C@@H](C)C(C)C)C(=O)N2C1)O3` [Example 264, (2S)-3-methylbutan-2-yl [(2S,6S,12Z,13aS,14aR,16aS)-1′,1′-difluoro-9′-methoxy-5′-methyl-14a-{[(1-methylcyclopropyl)sulfonyl]carbamoyl}-5,16-dioxo-1,1′,2′,5,6,7,8,9,10,11,13a,14,14a,15,16,16a-hexadecahydrospiro[cyclopropa[e]pyrrolo[1,2-a][1,4]diazacyclopentadecine-2,3′-pyrano[2,3-c]quinolin]-6-yl]carbamate], the negative logarithm of the EC50 (pEC50) with HCV genotype 1b replicon (K+ salt) was 8.37. In assay [1] (K+ salt), the IC50 was 0.013 nM.

As to `COc1ccc2nc(C)c3c(c2c1)C(F)(F)C[C@]1(C[C@H]2C(=O)N[C@]4(C(=O)NS(=O)(=O)C5(C)CC5)C[C@H]4/C=C\CCCCC[C@H](NC(=O)OC(C)(C)C(F)(F)F)C(=O)N2C1)O3` [Example 265, 1,1,1-trifluoro-2-methylpropan-2-yl [(2S,6S,12Z,13aS,14aR,16aS)-1′,1′-difluoro-9′-methoxy-5′-methyl-14a-{[(1-methylcyclopropyl)sulfonyl]carbamoyl}-5,16-dioxo-1,1′,2′,5,6,7,8,9,10,11,13a,14,14a,15,16,16a-hexadecahydrospiro[cyclopropa[e]pyrrolo[1,2-a][1,4]diazacyclopentadecine-2,3′-pyrano[2,3-c]quinolin]-6-yl]carbamate], in the assay with HCV genotype 1b replicon (K+ salt), the pEC50 is 8.48. Moreover, the IC50 in assay [1] (K+ salt) was found to be 0.007 nM.

On to `Cc1nc2ccc(OC(F)F)cc2c2c1O[C@]1(CC2)C[C@H]2C(=O)N[C@]3(C(=O)NS(=O)(=O)C4(C)CC4)C[C@H]3/C=C\CCCCC[C@H](NC(=O)OCC(C)C)C(=O)N2C1` [Example 267, 2-methylpropyl [(2R,6S,12Z,13aS,14aR,16aS)-9′-(difluoromethoxy)-5′-methyl-14a-{[(1-methylcyclopropyl)sulfonyl]carbamoyl}-5,16-dioxo-1,1′,2′,5,6,7,8,9,10,11,13a,14,14a,15,16,16a-hexadecahydrospiro[cyclopropa[e]pyrrolo[1,2-a][1,4]diazacyclopentadecine-2,3′-pyrano[2,3-c]quinolin]-6-yl]carbamate], for which, in the assay with HCV genotype 1b replicon (K+ salt), the pEC50 was 8.45. For the same molecule, in assay [1] (K+ salt), the IC50 was 0.006 nM.

For `Cc1nc2ccc(OC(F)F)cc2c2c1O[C@]1(CC2)C[C@H]2C(=O)N[C@]3(C(=O)NS(=O)(=O)C4(C)CC4)C[C@H]3/C=C\CCCCC[C@H](NC(=O)OC3CCCC3)C(=O)N2C1` [Example 268, cyclopentyl [(2R,6S,12Z,13aS,14aR,16aS)-9′-(difluoromethoxy)-5′-methyl-14a-{[(1-methylcyclopropyl)sulfonyl]carbamoyl}-5,16-dioxo-1,1′,2′,5,6,7,8,9,10,11,13a,14,14a,15,16,16a-hexadecahydrospiro[cyclopropa[e]pyrrolo[1,2-a][1,4]diazacyclopentadecine-2,3′-pyrano[2,3-c]quinolin]-6-yl]carbamate], the pEC50 with HCV genotype 1b replicon (K+ salt) was 8.39. Further, in assay [1] (K+ salt), the half-inhibitory concentration (IC50) was 0.003 nM.

Regarding `COc1ccc2c3c(c(C4CC4)nc2c1)O[C@]1(CC3)C[C@H]2C(=O)N[C@]3(C(=O)NS(=O)(=O)C4(C)CC4)C[C@H]3/C=C\CCCCC[C@H](NC(=O)CC(C)(C)C)C(=O)N2C1` [Example 269, (2R,6S,12Z,13aS,14aR,16a5)-5′-cyclopropyl-6-[(3,3-dimethylbutanoyl)amino]-8′-methoxy-N-[(1-methylcyclopropyl)sulfonyl]-5,16-dioxo-1,1′,2′,6,7,8,9,10,11,13a,14,15,16,16a-tetradecahydrospiro[cyclopropa[e]pyrrolo[1,2-a][1,4]diazacyclopentadecine-2,3′-pyrano[2,3-c]quinoline]-14a(5H)-carboxamide], in the assay with HCV genotype 1b replicon (HCOOH salt), the pEC50 was 7.92. Further, the 50% inhibitory concentration (IC50) in assay [1] (HCOOH salt) was 0.337 nM.

`COc1ccc2c3c(c(C4CC4)nc2c1)O[C@]1(CC3)C[C@H]2C(=O)N[C@]3(C(=O)NS(=O)(=O)C4(C)CC4)C[C@H]3/C=C\CCCCC[C@H](NC(=O)CC3CCCC3)C(=O)N2C1` [Example 270, (2R,6S,12Z,13aS,14aR,16aS)-6-[(cyclopentylacetyl)amino]-5′-cyclopropyl-8′-methoxy-N-[(1-methylcyclopropyl)sulfonyl]-5,16-dioxo-1,1′,2′,6,7,8,9,10,11,13a,14,15,16,16a-tetradecahydrospiro[cyclopropa[e]pyrrolo[1,2-a][1,4]diazacyclopentadecine-2,3′-pyrano[2,3-c]quinoline]-14a(5H)-carboxamide]: the pEC50 in the assay with HCV genotype 1b replicon (HCOOH salt) is 7.62. Moreover, the IC50 in assay [1] (HCOOH salt) was 0.044 nM.

Turning to `CCCOC(=O)N[C@H]1CCCCC/C=C\[C@@H]2C[C@@]2(C(=O)NS(=O)(=O)C2(C)CC2)NC(=O)[C@@H]2C[C@]3(CCc4c(c(C5CC5)nc5cc(OC)ccc45)O3)CN2C1=O` [Example 271, propyl [(2R,6S,12Z,13aS,14aR,16aS)-5′-cyclopropyl-8′-methoxy-14a-{[(1-methylcyclopropyl)sulfonyl]carbamoyl}-5,16-dioxo-1,1′,2′,5,6,7,8,9,10,11,13a,14,14a,15,16,16a-hexadecahydrospiro[cyclopropa[e]pyrrolo[1,2-a][1,4]diazacyclopentadecine-2,3′-pyrano[2,3-c]quinolin]-6-yl]carbamate], in the assay on HCV genotype 1b replicon (HCOOH salt), the negative logarithm of the EC50 (pEC50) was 8.23. Further, the 50% inhibitory concentration (IC50) in assay [1] (HCOOH salt) stood at 0.031 nM.

On to `CCCCOC(=O)N[C@H]1CCCCC/C=C\[C@@H]2C[C@@]2(C(=O)NS(=O)(=O)C2(C)CC2)NC(=O)[C@@H]2C[C@]3(CCc4c(c(C5CC5)nc5cc(OC)ccc45)O3)CN2C1=O` [Example 272, butyl [(2R,6S,12Z,13aS,14aR,16aS)-5′-cyclopropyl-8′-methoxy-14a-{[(1-methylcyclopropyl)sulfonyl]carbamoyl}-5,16-dioxo-1,1′,2′,5,6,7,8,9,10,11,13a,14,14a,15,16,16a-hexadecahydrospiro[cyclopropa[e]pyrrolo[1,2-a][1,4]diazacyclopentadecine-2,3′-pyrano[2,3-c]quinolin]-6-yl]carbamate], for which the negative-log EC50 (pEC50) in the assay with HCV genotype 1b replicon (HCOOH salt) was 7.95. Further, the IC50 in assay [1] (HCOOH salt) worked out at 0.116 nM.

As for `CCCCCOC(=O)N[C@H]1CCCCC/C=C\[C@@H]2C[C@@]2(C(=O)NS(=O)(=O)C2(C)CC2)NC(=O)[C@@H]2C[C@]3(CCc4c(c(C5CC5)nc5cc(OC)ccc45)O3)CN2C1=O` [Example 273, pentyl [(2R,6S,12Z,13aS,14aR,16aS)-5′-cyclopropyl-8′-methoxy-14a-{[(1-methylcyclopropyl)sulfonyl]carbamoyl}-5,16-dioxo-1,1′,2′,5,6,7,8,9,10,11,13a,14,14a,15,16,16a-hexadecahydrospiro[cyclopropa[e]pyrrolo[1,2-a][1,4]diazacyclopentadecine-2,3′-pyrano[2,3-c]quinolin]-6-yl]carbamate], in the assay with HCV genotype 1b replicon (HCOOH salt), the negative logarithm of the EC50 (pEC50) was 6.79. Also, in assay [1] (HCOOH salt), the half-inhibitory concentration (IC50) was determined as 1.13 nM.

Turning to `COc1ccc2c3c(c(C4CC4)nc2c1)O[C@]1(CC3)C[C@H]2C(=O)N[C@]3(C(=O)NS(=O)(=O)C4(C)CC4)C[C@H]3/C=C\CCCCC[C@H](NC(=O)Oc3ccc(C)cc3)C(=O)N2C1` [Example 274, 4-methylphenyl [(2R,6S,12Z,13aS,14aR,16aS)-5′-cyclopropyl-8′-methoxy-14a-{[(1-methylcyclopropyl)sulfonyl]carbamoyl}-5,16-dioxo-1,1′,2′,5,6,7,8,9,10,11,13a,14,14a,15,16,16a-hexadecahydrospiro[cyclopropa[e]pyrrolo[1,2-a][1,4]diazacyclopentadecine-2,3′-pyrano[2,3-c]quinolin]-6-yl]carbamate], the negative-log EC50 (pEC50) with HCV genotype 1b replicon (HCOOH salt) was 7.55. Further, the IC50 in assay [1] (HCOOH salt) amounted to 0.832 nM.
